Laboratory results taken from PubChem BioAssay AID2060604 (Molecular Pharmacology Branch, DTP, NCI, 2025).
“And” between values parts separate entries of the source, which are not always exact repeats. Identical values can stand only once. Blank lines part the entries; values can stand above or below the molecule they belong to.

System: 379773-124-R-J2-PDC complex spheroids, viability % test/control
Assay: Anticancer human tumor 379773-124-R-J2-PDC patient-derived endometrial carcinoma cell line growth inhibition [CLK]
Details: for viability, T/C: stronger effect = lower value
Outline: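 Multi-cell-type spheroids combined patient-derived tumor cells with HUVEC endothelial cells and human mesenchymal stem cells. Paired agents were dosed in half-log steps down from about clinical Cmax, or from 10 microM where Cmax was unknown.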

[1] = curve of first compound, second compound 0.0316 µM
[2] = curve of first compound, second compound 0.1 µM
[3] = curve of first compound, second compound 0.316 µM
[4] = curve of first compound, second compound 1 µM
[5] = curve of first compound, second compound 3.16 µM
[6] = curve of first compound, second compound 10 µM
[7] = second compound 0.0316 µM, first compound 0.0316 µM
[8] = second compound 0.0316 µM, first compound 0.1 µM
[9] = second compound 0.0316 µM, first compound 0.316 µM
[10] = second compound 0.0316 µM, first compound 1 µM
[11] = second compound 0.0316 µM, first compound 3.16 µM
[12] = second compound 0.0316 µM, first compound 10 µM
[13] = second compound 0.1 µM, first compound 0.0316 µM
[14] = second compound 0.1 µM, first compound 0.1 µM
[15] = second compound 0.1 µM, first compound 0.316 µM
[16] = second compound 0.1 µM, first compound 1 µM
[17] = second compound 0.1 µM, first compound 3.16 µM
[18] = second compound 0.1 µM, first compound 10 µM
[19] = second compound 0.316 µM, first compound 0.0316 µM
[20] = second compound 0.316 µM, first compound 0.1 µM
[21] = second compound 0.316 µM, first compound 0.316 µM
[22] = second compound 0.316 µM, first compound 1 µM
[23] = second compound 0.316 µM, first compound 3.16 µM
[24] = second compound 0.316 µM, first compound 10 µM
[25] = second compound 1 µM, first compound 0.0316 µM
[26] = second compound 1 µM, first compound 0.1 µM
[27] = second compound 1 µM, first compound 0.316 µM
[28] = second compound 1 µM, first compound 1 µM
[29] = second compound 1 µM, first compound 3.16 µM
[30] = second compound 1 µM, first compound 10 µM
[31] = second compound 3.16 µM, first compound 0.0316 µM
[32] = second compound 3.16 µM, first compound 0.1 µM
[33] = second compound 3.16 µM, first compound 0.316 µM
[34] = second compound 3.16 µM, first compound 1 µM
[35] = second compound 3.16 µM, first compound 3.16 µM
[36] = second compound 3.16 µM, first compound 10 µM
[37] = second compound 10 µM, first compound 0.0316 µM
[38] = second compound 10 µM, first compound 0.1 µM
[39] = second compound 10 µM, first compound 0.316 µM
[40] = second compound 10 µM, first compound 1 µM
[41] = second compound 10 µM, first compound 3.16 µM
[42] = second compound 10 µM, first compound 10 µM
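Also: compound exposure lasted seven days before the viability readout.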
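For viability, T/C in this document: 100% = DMSO vehicle control wells.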

IC50 (curve of compound): 1.85 nM and 1.53 nM
SMILES: CC(C)CC(NC(=O)C(Cc1ccccc1)NC(=O)c1cnccn1)B(O)O (stereo not given)
viability, T/C (compound 0.000949 µM): 83.2% and 77.4% | viability, T/C (compound 0.003 µM): 25.8% and 11.7% | viability, T/C (compound 0.00949 µM): 0.16% and 0.15% | viability, T/C (compound 0.03 µM): 0.22% and 0.21% | viability, T/C (compound 0.0949 µM): 0.19% and 0.16% | viability, T/C (compound 0.3 µM): 0.09% and 0.12%

IC50 [1]: 5600 nM | IC50 [2]: < 31.6 nM | IC50 [3]: < 31.6 nM | IC50 [4]: < 31.6 nM | IC50 [5]: < 31.6 nM | IC50 [6]: < 31.6 nM
SMILES: O=C(c1cc(Cc2n[nH]c(=O)c3ccccc23)ccc1F)N1CCN(C(=O)C2CC2)CC1 + CNC(=O)c1ccc(Nc2nc(OC3CCCC3)c3c(-c4ccc5nc(C)oc5c4)c[nH]c3n2)c(OC)c1
viability, T/C [7]: 76.2% | viability, T/C [8]: 75.1% | viability, T/C [9]: 67.7% | viability, T/C [10]: 75.4% | viability, T/C [11]: 69.9% | viability, T/C [12]: 29.6% | viability, T/C [13]: 41.1% | viability, T/C [14]: 41.7% | viability, T/C [15]: 37.8% | viability, T/C [16]: 31.9% | viability, T/C [17]: 36.3% | viability, T/C [18]: 15.3% | viability, T/C [19]: 51.7% | viability, T/C [20]: 42.3% | viability, T/C [21]: 35.5% | viability, T/C [22]: 33.7% | viability, T/C [23]: 33% | viability, T/C [24]: 13.7% | viability, T/C [25]: 39.9% | viability, T/C [26]: 32.2% | viability, T/C [27]: 29.8% | viability, T/C [28]: 33.3% | viability, T/C [29]: 23.2% | viability, T/C [30]: 10.2% | viability, T/C [31]: 32.8% | viability, T/C [32]: 34.1% | viability, T/C [33]: 26.3% | viability, T/C [34]: 33.5% | viability, T/C [35]: 31% | viability, T/C [36]: 8.47% | viability, T/C [37]: 29.5% | viability, T/C [38]: 29.9% | viability, T/C [39]: 24.8% | viability, T/C [40]: 23.9% | viability, T/C [41]: 23.2% | viability, T/C [42]: 6.48%

IC50 (compound alone, run of 09/18/2023): 199 nM [middle of 12 runs]
SMILES: CN1CCN(c2cc(C(=O)Nc3cc4cc(-c5cnn(C)c5)ccc4cn3)ccn2)CC1
viability, T/C (compound 0.0316 µM): 95.6% [middle of 12 runs] | viability, T/C (compound 0.316 µM): 28.3% [middle of 12 runs] | viability, T/C (compound 1 µM): 0.33% [middle of 10 runs] | viability, T/C (compound 3.16 µM): 0.29% [middle of 9 runs] | viability, T/C (compound 10 µM): 0.22% [middle of 9 runs]

IC50 (curve of compound): 5670 nM and 6250 nM
SMILES: COc1ccc([C@@H](O)c2cc(-c3ncnc4cc(N5CCOCC5)ccc34)c(F)cc2Cl)nn1
viability, T/C (compound 0.0316 µM): 95.4% and 83.8% | viability, T/C (compound 0.1 µM): 98.1% and 79.4% | viability, T/C (compound 0.316 µM): 81.3% and 79.2% | viability, T/C (compound 1 µM): 84.2% and 84.5% | viability, T/C (compound 3.16 µM): 68% and 79% | viability, T/C (compound 10 µM): 33.4% and 29.9%

SMILES: CC(C)CC(NC(=O)C(Cc1ccccc1)NC(=O)c1cnccn1)B(O)O (stereo not given) + CN1CCN(c2cc(C(=O)Nc3cc4cc(-c5cnn(C)c5)ccc4cn3)ccn2)CC1
IC50 [1]: 1.8 nM | IC50 [2]: 1.72 nM | IC50 [3]: < 0.949 nM | IC50 [4]: < 0.949 nM | IC50 [5]: < 0.949 nM | IC50 [6]: < 0.949 nM | viability, T/C (second compound 0.0316 µM, first compound 0.000949 µM): 83.2% | viability, T/C (second compound 0.0316 µM, first compound 0.003 µM): 23.3% | viability, T/C (second compound 0.0316 µM, first compound 0.00949 µM): 0.24% | viability, T/C (second compound 0.0316 µM, first compound 0.03 µM): 0.17% | viability, T/C (second compound 0.0316 µM, first compound 0.0949 µM): 0.13% | viability, T/C (second compound 0.0316 µM, first compound 0.3 µM): 0.12% | viability, T/C (second compound 0.1 µM, first compound 0.000949 µM): 84.3% | viability, T/C (second compound 0.1 µM, first compound 0.003 µM): 18.2% | viability, T/C (second compound 0.1 µM, first compound 0.00949 µM): 1.22% | viability, T/C (second compound 0.1 µM, first compound 0.03 µM): 0.15% | viability, T/C (second compound 0.1 µM, first compound 0.0949 µM): 0.19% | viability, T/C (second compound 0.1 µM, first compound 0.3 µM): 0.11% | viability, T/C (second compound 0.316 µM, first compound 0.000949 µM): 20.7% | viability, T/C (second compound 0.316 µM, first compound 0.003 µM): 1.68% | viability, T/C (second compound 0.316 µM, first compound 0.00949 µM): 0.49% | viability, T/C (second compound 0.316 µM, first compound 0.03 µM): 0.11% | viability, T/C (second compound 0.316 µM, first compound 0.0949 µM): 0.9% | viability, T/C (second compound 0.316 µM, first compound 0.3 µM): 0.12% | viability, T/C (second compound 1 µM, first compound 0.000949 µM): 0.18% | viability, T/C (second compound 1 µM, first compound 0.003 µM): 1.45% | viability, T/C (second compound 1 µM, first compound 0.00949 µM): 0.95% | viability, T/C (second compound 1 µM, first compound 0.03 µM): 0.06% | viability, T/C (second compound 1 µM, first compound 0.0949 µM): 0.3% | viability, T/C (second compound 1 µM, first compound 0.3 µM): 0.08% | viability, T/C (second compound 3.16 µM, first compound 0.000949 µM): 0.24% | viability, T/C (second compound 3.16 µM, first compound 0.003 µM): 0.69% | viability, T/C (second compound 3.16 µM, first compound 0.00949 µM): 0.24% | viability, T/C (second compound 3.16 µM, first compound 0.03 µM): 0.05% | viability, T/C (second compound 3.16 µM, first compound 0.0949 µM): 0.07% | viability, T/C (second compound 3.16 µM, first compound 0.3 µM): 0.09% | viability, T/C (second compound 10 µM, first compound 0.000949 µM): 1.09% | viability, T/C (second compound 10 µM, first compound 0.003 µM): 0.98% | viability, T/C (second compound 10 µM, first compound 0.00949 µM): 0.26% | viability, T/C (second compound 10 µM, first compound 0.03 µM): 2.17% | viability, T/C (second compound 10 µM, first compound 0.0949 µM): 0.59% | viability, T/C (second compound 10 µM, first compound 0.3 µM): 0.24%

IC50 (curve of compound): 78.7 nM and 58.8 nM
SMILES: COc1c(OCCCN2CCOCC2)ccc2c3n(c(=NC(=O)c4cnc(N)nc4)nc12)CCN3
viability, T/C (compound 0.00316 µM): 85.3% and 98.5% | viability, T/C (compound 0.01 µM): 91.9% and 72.6% | viability, T/C (compound 0.0316 µM): 73.5% and 69.3% | viability, T/C (compound 0.1 µM): 43.4% and 40.3% | viability, T/C (compound 0.316 µM): 15.3% and 12.2% | viability, T/C (compound 1 µM): 4.52% and 3.3%

IC50 (curve of compound): 4880 nM and 4990 nM
SMILES: CC1(C)CCC(CN2CCN(c3ccc(C(=O)NS(=O)(=O)c4ccc(NCC5CCOCC5)c([N+](=O)[O-])c4)c(Oc4cnc5[nH]ccc5c4)c3)CC2)=C(c2ccc(Cl)cc2)C1
viability, T/C (compound 0.0316 µM): 89.8% and 83.7% | viability, T/C (compound 0.1 µM): 92.6% and 89.4% | viability, T/C (compound 0.316 µM): 96.8% and 94% | viability, T/C (compound 1 µM): 96.9% and 111% | viability, T/C (compound 3.16 µM): 77.8% and 79.7% | viability, T/C (compound 10 µM): 3.91% and 4.86%

SMILES: C=CC(=O)N1CCN(c2nc(=O)n(-c3c(C)ccnc3C(C)C)c3nc(-c4c(O)cccc4F)c(F)cc23)C(C)C1 (stereo not given) + CN1CCN(c2cc(C(=O)Nc3cc4cc(-c5cnn(C)c5)ccc4cn3)ccn2)CC1
IC50 [1]: > 10000 nM | IC50 [2]: > 10000 nM | IC50 [3]: < 31.6 nM | IC50 [4]: < 31.6 nM | IC50 [5]: < 31.6 nM | IC50 [6]: < 31.6 nM | viability, T/C [7]: 105% | viability, T/C [8]: 92.5% | viability, T/C [9]: 91.2% | viability, T/C [10]: 94.4% | viability, T/C [11]: 84.6% | viability, T/C [12]: 75.2% | viability, T/C [13]: 85.5% | viability, T/C [14]: 79.2% | viability, T/C [15]: 72.5% | viability, T/C [16]: 88.1% | viability, T/C [17]: 84.2% | viability, T/C [18]: 62.5% | viability, T/C [19]: 29.6% | viability, T/C [20]: 32.8% | viability, T/C [21]: 29.3% | viability, T/C [22]: 29.2% | viability, T/C [23]: 38.5% | viability, T/C [24]: 13.2% | viability, T/C [25]: 0.15% | viability, T/C [26]: 3.06% | viability, T/C [27]: 0.25% | viability, T/C [28]: 1.12% | viability, T/C [29]: 1.01% | viability, T/C [30]: 0.17% | viability, T/C [31]: 0.18% | viability, T/C [32]: 0.13% | viability, T/C [33]: 0.13% | viability, T/C [34]: 0.34% | viability, T/C [35]: 1.33% | viability, T/C [36]: 1.3% | viability, T/C [37]: 0.12% | viability, T/C [38]: 0.54% | viability, T/C [39]: 1.42% | viability, T/C [40]: 0.17% | viability, T/C [41]: 1.04% | viability, T/C [42]: 0.5%
